The values below come from PMC4792136, “A generic screening platform for inhibitors of virus induced cell fusion using cellular electrical impedance” (Scientific Reports, 2016).

Test [1] concerns the target T1, RSV F protein (Human respiratory syncytial virus A, UniProt P03420).
T1 construct: expressed in transfected cells; host or cells: Cos7 cells (transiently transfected), co-plated with BsrT7 cells
Kind of test: recombinant F CEI fusion assay, 384-well. Type of test: cell-based. The text has this: (§1) Impedance assays were setup in parallel to microscopy based fluorescent protein cytoplasmic mixing and cell content mixing T7 driven fusion assays. For testing small molecule inhibitors see cell content mixing, T7 driven reporter fusion assay protocol for cell infection, transfection and plating method. All other steps were as listed below.
(§2) Cos7-G cells were transfected with the RSV F expression vector (pCICO-Fopt) in 6 well plates using lipofectamine LTX as per manufacturer’s instructions (Invitrogen) or infected with RSV (MOI of 2). Four hours post infection/transfection, cells were trypsinized and re-suspended to 8 × 10^5 cells/ml. E-Plates were pre-blanked and Cos7-G and Cos7-R cells were seeded together at a 1:1 ratio for a final cell density of 5 × 10^4 cells/well. Plates were placed into the SP station, incubated at 37 °C in 5% CO2 and impedance was recorded every 15 min over 72 h.
(§3) 384-well fusion assays were setup as per 96-well protocol with the following changes: Cos7 and BsrT7 cells were seeded at a final concentration of 1 × 10^4 cells/well. Compound titration was performed in a Biomek NX Laboratory Automation Workstation and added to a final volume of 25 μl/well. Luciferase activity was determined using an EnVision Multilabel reader (PerkinElmer).

Test [2] relates to RSV. Kind of test: RSV CEI fusion assay, live virus, 96-well. Conditions: for IC50: human respiratory syncytial virus, read-out: RSV CEI 96 IC50. Type of test: cell-based, respiratory syncytial virus.
Text: as §1, §2
(§4) The protocol is an adaptation of that described by Bagai and Lamb[29]. Cos7 cells were transfected with a plasmid containing Renilla luciferase under T7 promoter control (pGL80-T7RL) and an RSV F expression vector. For live virus fusion assay, transfection media was removed after 2 h and replaced with SF media containing RSV (MOI of 2). Two h post infection (4 h post initial transfection) cells were trypsinized and re-suspended to 8 × 10^5 cells/ml. Compounds were serially diluted in SF Opti-MEM media and added to opaque bottom, white microtitre plates (Corning) at 50 μl/well along with 25 μl of both Cos7 and BsrT7 cells added to each well to obtain a final concentration of 5 × 10^4 cells/well. After 24 h, media was exchanged with 50 μl/well Opti-MEM media supplemented with 2% FBS and 8 ng/ml Enduren Live Cell Substrate (Promega). After 6 h at 37 °C in a humidified incubator supplemented with 5% CO2, the plates were read using a Lucy 2 luminometer with 1 sec integration time. Assays were performed in triplicate.

Test [3] concerns the target T1, RSV F protein. Kind of test: Cell content mixing T7 luciferase fusion assay, recombinant F, 96-well. Type of test: cell-based. The protocol:
as §4

The test system of test [4] is RSV. Also noted: method as in earlier work. Conditions: HEp-2 cells, MOI 0.2, 48 h, MTT; CPE data supplied by Biota Pharmaceuticals ref 35; cited from earlier work.
In test [5] the target is T1, RSV F protein. Kind of test: Cell content mixing T7 luciferase fusion assay, recombinant F, 384-well. Type of test: cell-based. As to the method: as §4, §3
For test [6], the system named is RSV. Description: Plaque-reduction neutralization (PRNT) assay, RSV. As to conditions: human respiratory syncytial virus; RSV on vero cells; in Table S1 printed as ± followed by a range. Type of test: cell-based. (In general: In a plaque reduction assay, fewer plaques than in the control indicate reduced infectivity or spread.)
For test [7], the target named is T1, RSV F protein. Kind of test: recombinant F CEI fusion assay, 96-well. Type of test: cell-based. As to conditions: cells transfected with noncoding empty vector (eV).
Text: as §1, §2
The protocol is an adaptation of that described by Bagai and Lamb[29]. Cos7 cells were transfected with a plasmid containing Renilla luciferase under T7 promoter control (pGL80-T7RL) and an RSV F expression vector. For live virus fusion assay, transfection media was removed after 2 h and replaced with SF media containing RSV (MOI of 2). […] After 6 h at 37 °C in a humidified incubator supplemented with 5% CO2, the plates were read using a Lucy 2 luminometer with 1 sec integration time. […]

T1 sequence (P03420 137-574): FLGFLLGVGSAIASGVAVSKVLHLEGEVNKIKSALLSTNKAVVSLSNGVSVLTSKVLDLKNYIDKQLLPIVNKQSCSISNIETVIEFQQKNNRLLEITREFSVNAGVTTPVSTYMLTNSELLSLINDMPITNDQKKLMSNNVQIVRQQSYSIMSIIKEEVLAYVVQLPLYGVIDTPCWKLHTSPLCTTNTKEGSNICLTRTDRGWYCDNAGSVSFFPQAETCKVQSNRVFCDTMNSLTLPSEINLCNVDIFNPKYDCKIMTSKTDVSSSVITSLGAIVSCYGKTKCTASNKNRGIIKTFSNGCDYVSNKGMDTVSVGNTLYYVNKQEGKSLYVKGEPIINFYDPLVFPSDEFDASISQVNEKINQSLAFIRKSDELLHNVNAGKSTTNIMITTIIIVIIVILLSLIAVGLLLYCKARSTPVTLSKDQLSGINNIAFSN
T1 sequence (P03420 26-109): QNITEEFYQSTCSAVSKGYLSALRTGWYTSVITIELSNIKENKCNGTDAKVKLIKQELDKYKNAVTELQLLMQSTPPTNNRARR

The term IC50 denotes the point on the concentration scale where inhibition reaches its midpoint. In the case of `O=C(c1ccc(F)cc1)N1CCN2C(=O)c3cc[n+]([O-])cc3C12c1ccc(Cl)cc1` (centres unmarked) [BTA-3], the half-inhibitory concentration (IC50) was 1 µM at RSV F protein [1], 0.2 µM in the test on RSV [2], 2.51 µM on RSV F protein [3] and 31.6 µM on RSV F protein [5]. In addition, the “CPE EC50” value in the test on RSV [4] was -6.8 log10 M.
`O=C(c1ccoc1)N1CCN2C(=O)c3cc[n+]([O-])cc3[C@]12c1ccc(Cl)cc1` [BTA-4]: the IC50 is 2.51 µM on RSV F protein [1], 0.0398 µM in the test with RSV [2], 1 µM at RSV F protein [3] and 7.94 µM at RSV F protein [5]. Besides, in the test on RSV [4], the “CPE EC50” value is recorded as -7.6 log10 M.
Take `O=C(c1ccc(F)cc1)N1CCN2C(=O)c3ccncc3C12c1ccc(Cl)cc1` (centres unmarked) [BTA-1]: the half-inhibitory concentration (IC50) is 6.31 µM on RSV F protein [1], 0.398 µM in the test on RSV [2], 3.98 µM on RSV F protein [3] and 158 µM at RSV F protein [5]. Besides, in the test on RSV [4], the “CPE EC50” value was -6.5 log10 M.
Regarding `Cc1ocnc1C(=O)N1CCN2C(=O)c3ccncc3[C@@]21c1ccc(Cl)cc1` [BTA-5], the IC50 was 2.51 µM at RSV F protein [1], 0.501 µM in the test on RSV [2], 12.6 µM on RSV F protein [3] and 79.4 µM at RSV F protein [5]. The “CPE EC50” value in the test with RSV [4] was -6.6 log10 M.
Turning to `Cc1ocnc1C(=O)N1CCN2C(=O)c3ccncc3C21C1CCOCC1` (centres unmarked) [BTA-6], the IC50 at RSV F protein [1] was 0.2 µM; in the test on RSV [2], 0.00501 µM; at RSV F protein [3] it was 0.0398 µM; on RSV F protein [5], 1 µM. Besides, in the test on RSV [4], the “CPE EC50” value was -8.5 log10 M.
As for `O=C(c1ccoc1)N1CCN2C(=O)c3ccncc3[C@]12c1ccc(Cl)cc1` [BTA-2], the IC50 at RSV F protein [1] is 0.251 µM; in the test on RSV [2], 0.02 µM; at RSV F protein [3], 0.158 µM; at RSV F protein [5], 2.51 µM. The “CPE EC50” value with RSV [4] is -7.9 log10 M.
On to `Cc1ccc(CCCO)c(NCc2ccc3nc(NCCCN4CCOCC4)n(Cc4nc(C)ccc4O)c3c2)c1` [TMC-353121], for which the IC50 with RSV [6] is 0.0058 µM; with RSV [2], 0.000794 µM. Moreover, the “change in cell impedance of control cells” value in the test on RSV [2] (control (uninfected) cells) is “No change in cell impedance”. Moreover, the “effect on cell impedance of control cells” value at RSV F protein [7] was “No effect on cell impedance”.
As for `O=C1c2ccncc2[C@@]2(c3ccc(Cl)cc3)N1CCN2C(=O)C1CC1` [BTA-7], the results for the IC50 on RSV F protein [1], in the test on RSV [2] and at RSV F protein [3] were 12.6 µM, 0.794 µM and 39.8 µM, respectively. Further, the “CPE EC50” value in the test on RSV [4] is -5.8 log10 M.
